Measurements as given in PMC10176470, “Engaging a Non-catalytic Cysteine Residue Drives Potent and Selective Inhibition of Caspase-6” (Journal of the American Chemical Society, 2023).
Like-named read-outs stand apart in the source and are kept apart here.

Key:
Type in all cases: cell-based
[1] = target: proteins of HEK293T cells transiently overexpressing caspase-6 (Homo sapiens, UniProt O43390); settings: exp_ref Probe; protein HNRNPR (O43390); analysis C6
[2] = target: proteins of HEK293T cells transiently overexpressing caspase-6 (Homo sapiens, UniProt O94919); settings: exp_ref Probe; protein ENDOD1 (O94919); analysis C6
[3] = target: proteins of HEK293T cells transiently overexpressing caspase-6 (Homo sapiens, UniProt P07437); settings: protein TUBB (P07437)
[4] = target: proteins of HEK293T cells transiently overexpressing caspase-6 (Homo sapiens, UniProt P08758); settings: exp_ref Probe; protein ANXA5 (P08758); analysis C6
[5] = target: proteins of HEK293T cells transiently overexpressing caspase-6 (Homo sapiens, UniProt P0DPI2); settings: exp_ref Probe; protein C21orf33 (P30042); analysis C6
[6] = target: proteins of HEK293T cells transiently overexpressing caspase-6 (Homo sapiens, UniProt P10599); settings: exp_ref Probe; protein TXN (P10599); analysis C6
[7] = target: proteins of HEK293T cells transiently overexpressing caspase-6 (Homo sapiens, UniProt P11388); settings: protein TOP2A (P11388)
[8] = target: proteins of HEK293T cells transiently overexpressing caspase-6 (Homo sapiens, UniProt P12268); settings: exp_ref Probe; protein IMPDH2 (P12268); analysis C6
[9] = target: proteins of HEK293T cells transiently overexpressing caspase-6 (Homo sapiens, UniProt P14625); settings: exp_ref Probe; protein HSP90B1 (P14625); analysis C6
[10] = target: proteins of HEK293T cells transiently overexpressing caspase-6 (Homo sapiens, UniProt P17844); settings: exp_ref Probe; protein DDX5 (P17844); analysis C6
[11] = target: proteins of HEK293T cells transiently overexpressing caspase-6 (Homo sapiens, UniProt P22314); settings: exp_ref Probe; protein UBA1 (P22314); analysis C6
[12] = target: proteins of HEK293T cells transiently overexpressing caspase-6 (Homo sapiens, UniProt P34932); settings: Probe; protein HSPA4 P34932
[13] = target: proteins of HEK293T cells transiently overexpressing caspase-6 (Homo sapiens, UniProt P43487); settings: exp_ref Probe; protein RANBP1 (P43487); analysis C6
[14] = target: T1, proteins of HEK293T cells transiently overexpressing caspase-6 (Homo sapiens, UniProt P45880); settings: protein VDAC2 (P45880)
T1 sequence (P45880 1-294): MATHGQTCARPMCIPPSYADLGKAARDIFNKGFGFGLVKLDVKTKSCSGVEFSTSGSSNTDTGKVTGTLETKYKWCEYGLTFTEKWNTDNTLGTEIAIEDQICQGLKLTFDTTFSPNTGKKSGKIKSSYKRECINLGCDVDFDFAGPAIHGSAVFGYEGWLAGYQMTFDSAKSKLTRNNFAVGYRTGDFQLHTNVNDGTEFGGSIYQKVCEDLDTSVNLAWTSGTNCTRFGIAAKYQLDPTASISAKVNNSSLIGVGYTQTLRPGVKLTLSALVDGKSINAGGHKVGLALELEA

[15] = target: proteins of HEK293T cells transiently overexpressing caspase-6 (Homo sapiens, UniProt P55884); settings: exp_ref Probe; protein EIF3B (P55884); analysis C6
[16] = target: proteins of HEK293T cells transiently overexpressing caspase-6 (Homo sapiens, UniProt P62805)
[17] = target: proteins of HEK293T cells transiently overexpressing caspase-6 (Homo sapiens, UniProt P84090); settings: Probe; protein ERH P84090
[18] = target: proteins of HEK293T cells transiently overexpressing caspase-6 (Homo sapiens, UniProt Q01082); settings: Probe; protein SPTBN1 Q01082
[19] = target: proteins of HEK293T cells transiently overexpressing caspase-6 (Homo sapiens, UniProt Q04637); settings: protein EIF4G1 (Q04637)
[20] = target: proteins of HEK293T cells transiently overexpressing caspase-6 (Homo sapiens, UniProt Q16531); settings: Probe; protein DDB1 Q16531
[21] = target: proteins of HEK293T cells transiently overexpressing caspase-6 (Homo sapiens, UniProt Q9NX40); settings: protein OCIAD1 (Q9NX40); exp_ref Probe; analysis C6
[22] = target: proteins of HEK293T cells transiently overexpressing caspase-6 (Homo sapiens, UniProt Q9UEG4)
[23] = target: proteins of HEK293T cells transiently overexpressing caspase-6 (Homo sapiens, UniProt Q9Y265); settings: Probe; protein RUVBL1 Q9Y265

Chain of proteins of HEK293T cells transiently overexpressing caspase-6 (Homo sapiens, UniProt P11388) (P11388 whole entry): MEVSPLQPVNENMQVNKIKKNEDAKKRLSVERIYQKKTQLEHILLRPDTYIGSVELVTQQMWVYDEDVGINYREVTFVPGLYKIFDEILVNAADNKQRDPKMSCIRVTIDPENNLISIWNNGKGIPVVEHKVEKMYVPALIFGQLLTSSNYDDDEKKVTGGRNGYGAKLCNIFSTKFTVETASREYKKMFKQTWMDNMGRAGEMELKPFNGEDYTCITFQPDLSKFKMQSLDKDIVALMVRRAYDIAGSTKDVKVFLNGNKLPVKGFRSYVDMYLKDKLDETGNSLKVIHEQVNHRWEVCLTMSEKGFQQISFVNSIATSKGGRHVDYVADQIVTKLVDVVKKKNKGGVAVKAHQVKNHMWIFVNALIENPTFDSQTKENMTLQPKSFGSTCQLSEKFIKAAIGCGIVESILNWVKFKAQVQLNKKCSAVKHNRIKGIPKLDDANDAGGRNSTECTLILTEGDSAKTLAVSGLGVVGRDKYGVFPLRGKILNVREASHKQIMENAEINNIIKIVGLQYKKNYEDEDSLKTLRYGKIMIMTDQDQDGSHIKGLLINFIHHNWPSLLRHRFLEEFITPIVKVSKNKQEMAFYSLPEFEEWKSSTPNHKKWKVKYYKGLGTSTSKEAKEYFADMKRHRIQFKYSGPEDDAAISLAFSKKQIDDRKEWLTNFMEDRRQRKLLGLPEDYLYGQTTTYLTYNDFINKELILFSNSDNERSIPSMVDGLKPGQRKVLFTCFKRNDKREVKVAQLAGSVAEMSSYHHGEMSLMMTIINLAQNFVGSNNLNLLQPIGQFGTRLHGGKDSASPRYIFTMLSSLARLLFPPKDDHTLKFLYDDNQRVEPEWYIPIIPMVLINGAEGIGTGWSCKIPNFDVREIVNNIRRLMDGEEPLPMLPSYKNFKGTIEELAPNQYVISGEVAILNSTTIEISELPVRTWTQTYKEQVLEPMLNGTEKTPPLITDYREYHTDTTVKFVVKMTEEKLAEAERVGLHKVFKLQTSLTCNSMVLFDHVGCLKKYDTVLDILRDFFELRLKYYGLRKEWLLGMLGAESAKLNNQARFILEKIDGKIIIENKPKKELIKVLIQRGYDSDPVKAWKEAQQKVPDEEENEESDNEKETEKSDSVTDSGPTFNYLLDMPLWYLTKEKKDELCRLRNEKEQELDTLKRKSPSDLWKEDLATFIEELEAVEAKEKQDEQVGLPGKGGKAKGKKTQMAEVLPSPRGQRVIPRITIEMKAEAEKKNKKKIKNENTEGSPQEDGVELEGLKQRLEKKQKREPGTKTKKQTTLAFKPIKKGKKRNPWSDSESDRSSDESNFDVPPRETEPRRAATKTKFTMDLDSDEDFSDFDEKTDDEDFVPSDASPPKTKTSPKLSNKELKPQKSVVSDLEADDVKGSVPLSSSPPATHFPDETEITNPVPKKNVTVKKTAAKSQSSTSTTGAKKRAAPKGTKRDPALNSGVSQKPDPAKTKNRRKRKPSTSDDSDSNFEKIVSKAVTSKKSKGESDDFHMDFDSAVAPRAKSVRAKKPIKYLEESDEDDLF
Chain of proteins of HEK293T cells transiently overexpressing caspase-6 (Homo sapiens, UniProt P07437) (P07437 whole entry): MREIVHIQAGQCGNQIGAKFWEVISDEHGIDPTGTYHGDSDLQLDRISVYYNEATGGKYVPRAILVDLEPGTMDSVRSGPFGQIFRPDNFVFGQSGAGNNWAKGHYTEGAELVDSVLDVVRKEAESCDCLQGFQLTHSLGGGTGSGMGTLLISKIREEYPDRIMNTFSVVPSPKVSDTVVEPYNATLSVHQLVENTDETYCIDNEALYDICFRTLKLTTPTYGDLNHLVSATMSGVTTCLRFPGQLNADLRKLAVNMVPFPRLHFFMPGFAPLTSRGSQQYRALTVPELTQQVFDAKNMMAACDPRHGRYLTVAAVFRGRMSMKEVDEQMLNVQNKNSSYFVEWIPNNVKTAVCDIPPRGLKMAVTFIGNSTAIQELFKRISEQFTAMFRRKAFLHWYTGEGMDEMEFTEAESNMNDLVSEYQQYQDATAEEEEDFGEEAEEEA
Chain of proteins of HEK293T cells transiently overexpressing caspase-6 (Homo sapiens, UniProt Q9UEG4) (Q9UEG4 whole entry): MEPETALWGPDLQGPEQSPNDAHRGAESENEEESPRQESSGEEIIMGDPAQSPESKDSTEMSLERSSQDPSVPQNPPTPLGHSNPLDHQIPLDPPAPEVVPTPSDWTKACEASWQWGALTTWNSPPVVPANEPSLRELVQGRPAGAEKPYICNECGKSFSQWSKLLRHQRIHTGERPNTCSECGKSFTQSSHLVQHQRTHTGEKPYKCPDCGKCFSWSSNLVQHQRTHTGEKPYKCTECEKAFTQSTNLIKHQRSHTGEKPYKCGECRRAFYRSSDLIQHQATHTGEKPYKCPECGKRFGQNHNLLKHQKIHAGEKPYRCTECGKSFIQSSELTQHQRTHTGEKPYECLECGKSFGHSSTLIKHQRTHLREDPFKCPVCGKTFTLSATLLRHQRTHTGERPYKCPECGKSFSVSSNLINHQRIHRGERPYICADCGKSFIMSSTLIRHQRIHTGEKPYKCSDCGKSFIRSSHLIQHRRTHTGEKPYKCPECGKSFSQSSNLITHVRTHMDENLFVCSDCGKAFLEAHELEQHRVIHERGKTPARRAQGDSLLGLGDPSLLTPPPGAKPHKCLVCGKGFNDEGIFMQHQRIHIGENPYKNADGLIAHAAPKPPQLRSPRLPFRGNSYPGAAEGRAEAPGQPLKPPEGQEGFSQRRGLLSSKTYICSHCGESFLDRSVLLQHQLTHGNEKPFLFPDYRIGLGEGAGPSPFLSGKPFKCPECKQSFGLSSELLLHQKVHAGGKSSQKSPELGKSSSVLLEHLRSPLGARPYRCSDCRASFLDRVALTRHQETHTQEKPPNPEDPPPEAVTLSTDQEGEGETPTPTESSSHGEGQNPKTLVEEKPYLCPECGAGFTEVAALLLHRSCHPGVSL
Chain of proteins of HEK293T cells transiently overexpressing caspase-6 (Homo sapiens, UniProt Q04637) (Q04637 whole entry): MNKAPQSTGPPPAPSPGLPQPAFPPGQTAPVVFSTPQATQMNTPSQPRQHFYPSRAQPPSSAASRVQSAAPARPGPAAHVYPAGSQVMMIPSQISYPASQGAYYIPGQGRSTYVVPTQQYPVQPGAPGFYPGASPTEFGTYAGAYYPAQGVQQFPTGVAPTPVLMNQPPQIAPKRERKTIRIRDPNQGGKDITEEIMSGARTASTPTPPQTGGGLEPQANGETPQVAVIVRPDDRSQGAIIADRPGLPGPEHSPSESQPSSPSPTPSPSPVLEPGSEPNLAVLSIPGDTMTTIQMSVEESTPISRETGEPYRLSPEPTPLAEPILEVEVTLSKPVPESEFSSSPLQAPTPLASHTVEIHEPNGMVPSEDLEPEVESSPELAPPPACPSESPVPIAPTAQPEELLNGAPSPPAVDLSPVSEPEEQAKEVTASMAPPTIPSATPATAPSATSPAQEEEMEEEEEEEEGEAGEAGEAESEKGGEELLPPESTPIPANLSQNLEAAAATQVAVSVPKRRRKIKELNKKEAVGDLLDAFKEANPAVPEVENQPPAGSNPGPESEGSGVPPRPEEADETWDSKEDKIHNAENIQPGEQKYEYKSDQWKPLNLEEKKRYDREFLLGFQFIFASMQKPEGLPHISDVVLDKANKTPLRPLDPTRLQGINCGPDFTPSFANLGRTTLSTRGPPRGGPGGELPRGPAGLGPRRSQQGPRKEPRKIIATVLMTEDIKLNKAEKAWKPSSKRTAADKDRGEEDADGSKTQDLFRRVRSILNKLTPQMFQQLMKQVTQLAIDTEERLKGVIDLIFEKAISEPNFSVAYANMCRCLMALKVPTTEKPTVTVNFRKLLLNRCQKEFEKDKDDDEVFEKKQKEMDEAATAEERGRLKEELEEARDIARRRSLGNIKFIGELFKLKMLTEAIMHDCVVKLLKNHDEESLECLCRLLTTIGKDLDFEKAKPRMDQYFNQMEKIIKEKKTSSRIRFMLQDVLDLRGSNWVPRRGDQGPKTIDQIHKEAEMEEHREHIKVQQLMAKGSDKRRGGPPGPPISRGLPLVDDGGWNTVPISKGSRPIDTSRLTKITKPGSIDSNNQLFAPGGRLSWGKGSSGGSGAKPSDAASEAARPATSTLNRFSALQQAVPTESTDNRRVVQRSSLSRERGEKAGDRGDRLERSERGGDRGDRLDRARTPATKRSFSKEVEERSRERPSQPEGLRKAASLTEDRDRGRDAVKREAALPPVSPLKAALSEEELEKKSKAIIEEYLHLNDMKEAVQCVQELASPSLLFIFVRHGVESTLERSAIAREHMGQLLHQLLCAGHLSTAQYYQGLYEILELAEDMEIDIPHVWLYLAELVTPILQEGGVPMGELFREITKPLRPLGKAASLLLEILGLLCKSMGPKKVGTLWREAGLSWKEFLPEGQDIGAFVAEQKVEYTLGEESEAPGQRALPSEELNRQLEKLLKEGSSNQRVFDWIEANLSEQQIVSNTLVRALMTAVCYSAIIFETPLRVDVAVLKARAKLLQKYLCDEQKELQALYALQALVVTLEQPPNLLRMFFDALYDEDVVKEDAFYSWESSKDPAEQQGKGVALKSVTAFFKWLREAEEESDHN
Chain of proteins of HEK293T cells transiently overexpressing caspase-6 (Homo sapiens, UniProt P84090) (P84090 whole entry): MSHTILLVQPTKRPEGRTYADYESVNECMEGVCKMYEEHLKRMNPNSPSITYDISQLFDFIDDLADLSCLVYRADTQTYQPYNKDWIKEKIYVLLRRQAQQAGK
Chain of proteins of HEK293T cells transiently overexpressing caspase-6 (Homo sapiens, UniProt P08758) (P08758 whole entry): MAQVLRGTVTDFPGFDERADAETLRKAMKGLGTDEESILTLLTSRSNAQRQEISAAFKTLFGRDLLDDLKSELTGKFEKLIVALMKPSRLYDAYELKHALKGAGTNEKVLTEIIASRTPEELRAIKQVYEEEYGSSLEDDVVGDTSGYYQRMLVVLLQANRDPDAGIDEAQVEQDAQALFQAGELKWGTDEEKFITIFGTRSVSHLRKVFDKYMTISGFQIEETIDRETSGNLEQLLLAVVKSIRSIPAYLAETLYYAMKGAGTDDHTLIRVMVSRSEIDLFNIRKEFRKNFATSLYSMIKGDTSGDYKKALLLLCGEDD
Chain of proteins of HEK293T cells transiently overexpressing caspase-6 (Homo sapiens, UniProt P10599) (P10599 whole entry): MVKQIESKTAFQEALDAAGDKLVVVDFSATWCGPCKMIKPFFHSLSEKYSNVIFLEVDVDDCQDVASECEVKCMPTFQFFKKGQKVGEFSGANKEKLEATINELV

C#CCOc1ccc([C@@H]2C[C@@H](C(=O)Nc3ccc(OC(F)(F)F)cc3)CN(S(=O)(=O)C=C)C2)cc1 (relative stereo) [13-t]
enrich.exp.med [1]: 0.1675
enrich.exp.med [2]: -0.1243
enrich.exp.med ([3]; exp_ref Probe, analysis C6): 1.184
enrich.exp.med.lin [3]: 2.273
enrich.exp.med.log2 [3]: 1.184
enrich.exp.med [4]: 0.2384
enrich.exp.med [5]: -0.3681
enrich.exp.med [6]: 0.866
enrich.exp.med.lin [7]: 3.929
enrich.exp.med.log2 [7]: 1.974
enrich.exp.med ([7]; exp_ref Probe, analysis C6): 1.974
enrich.exp.med [8]: 0.7134
enrich.exp.med [9]: 0.4413
enrich.exp.med [10]: -0.0188
enrich.exp.med [11]: 0.3187
enrich.exp.med [12]: -1.079
enrich.exp.med [13]: 0.3695
enrich.exp.med.lin [14]: 4.704
enrich.exp.med.log2 [14]: 2.234
enrich.exp.med.lin ([14]; Expt Probe, analysis C6): 4.704
enrich.exp.med.log2 ([14]; Expt Probe, analysis C6): 2.234
enrich.exp.med ([14]; exp_ref Probe, analysis C6): 2.234
enrich.exp.med [15]: 0.2575
enrich.exp.med ([16]; Probe, protein HIST1H4A P62805): -2.533
enrich.exp.med.lin ([16]; protein HIST1H4A (P62805)): 0.1728
enrich.exp.med.log2 ([16]; protein HIST1H4A (P62805)): -2.533
enrich.exp.med [17]: -0.8193
enrich.exp.med [18]: -1.031
enrich.exp.med ([19]; exp_ref Probe, analysis C6): 0.9115
enrich.exp.med.lin [19]: 1.881
enrich.exp.med.log2 [19]: 0.9115
enrich.exp.med [20]: -0.5354
enrich.exp.med [21]: 2.033
enrich.exp.med ([22]; Probe, protein ZNF629 Q9UEG4): -2.2193
enrich.exp.med.lin ([22]; protein ZNF629 (Q9UEG4)): 0.2147
enrich.exp.med.log2 ([22]; protein ZNF629 (Q9UEG4)): -2.2193
enrich.exp.med [23]: -0.45
